According to ChEMBL document CHEMBL5257131, “Quantum Annealing Designs Nonhemolytic Antimicrobial Peptides in a Discrete Latent Space” (ACS Med Chem Lett, 2023):
Peptide text beside a SMILES is read from it.

Columns and labels:
Escherichia coli = assay: Antimicrobial activity against Escherichia coli assessed as inhibition of microbial growth incubated for 26 hrs by micro-dilution test; assay type: functional
[1] = Hemolytic activity in human erythrocytes assessed as hemolysis at 1 uM incubated for 1 hrs by spectrophotometric analysis relative to control; assay type: toxicity, cell-based, Erythrocyte; details: read-out: Activity
[2] = Hemolytic activity in rabbit RBC assessed as hemolysis at 100 uM incubated for 6 hrs by Uv-vis spectrophotometric analysis; assay type: toxicity, cell-based, Oryctolagus cuniculus; details: erythrocyte

MIC (Escherichia coli) [µg/mL]	Compound	hemolysis at 1 h, 1 µM [1] [%]	Activity [2]
> 100	CC[C@H](C)[C@H](NC(=O)CNC(=O)[C@H](CCCCN)NC(=O)[C@H](C)NC(=O)[C@@H](NC(=O)[C@H](CCCCN)NC(=O)[C@H](CCCCN)NC(=O)[C@H](CC(C)C)NC(=O)[C@@H](NC(=O)[C@@H](NC(=O)[C@@H](NC(=O)[C@H](CC(C)C)NC(=O)CN)C(C)C)[C@@H](C)O)C(C)C)C(C)C)C(=O)N[C@H](C(=O)N[C@@H](CCCCN)C(=O)N[C@H](C(=O)N[C@@H](C)C(=O)N[C@@H](CO)C(=O)N[C@@H](CCCCN)C(=O)N[C@H](C(=O)NCC(=O)N[C@@H](CO)C(=O)N[C@@H](CCCCN)C(=O)N[C@@H](CCC(=O)O)C(=O)N[C@@H](CC(C)C)C(=O)O)C(C)C)[C@@H](C)O)C(C)C (H-GLVTVLKKVAKGIVKTASKVGSKEL-OH)		
	CC[C@H](C)[C@H](NC(=O)CN)C(=O)NCC(=O)N[C@@H](C)C(=O)N[C@H](C(=O)N[C@@H](CC(C)C)C(=O)N[C@@H](CCCCN)C(=O)N[C@H](C(=O)N[C@@H](CC(C)C)C(=O)N[C@H](C(=O)N[C@H](C(=O)NCC(=O)N[C@@H](CC(C)C)C(=O)N1CCC[C@H]1C(=O)N[C@@H](C)C(=O)N[C@@H](CC(C)C)C(=O)N[C@H](C(=O)N[C@@H](CO)C(=O)N[C@@H](Cc1c[nH]c2ccccc12)C(=O)N[C@H](C(=O)N[C@@H](CCCCN)C(=O)N[C@@H](CCCNC(=N)N)C(=O)N[C@@H](CCCCN)C(=O)N[C@@H](CCCNC(=N)N)C(=O)N[C@@H](CCC(N)=O)C(=O)N[C@@H](CCC(N)=O)C(N)=O)[C@@H](C)CC)[C@@H](C)CC)[C@@H](C)O)[C@@H](C)O)C(C)C)C(C)C [MELITTIN]	90	
6.25	CC(C)C[C@H](NC(=O)[C@H](CC(N)=O)NC(=O)[C@H](CCCCN)NC(=O)[C@H](CC(C)C)NC(=O)[C@@H](NC(=O)[C@H](CCCCN)NC(=O)[C@H](Cc1ccccc1)NC(=O)CN)[C@@H](C)O)C(=O)N[C@@H](C)C(=O)N[C@@H](CCCCN)C(=O)N[C@@H](CCCCN)C(=O)N[C@H](C(=O)N[C@@H](C)C(=O)N[C@@H](CCCCN)C(=O)N[C@@H](CCCCN)C(=O)N[C@H](C(=O)N[C@@H](CC(C)C)C(=O)N[C@@H](CCCCN)C(=O)N[C@@H](C)C(=O)N[C@H](C(=O)N[C@@H](CCCNC(=N)N)C(=O)O)C(C)C)C(C)C)C(C)C (H-GFKTLKNLAKKVAKKVLKAVR-OH)		Non-Toxic

Compound	MIC (Escherichia coli) [µg/mL]	hemolysis at 1 h, 1 µM [1] [%]	Activity [2]
CC1(C)S[C@@H]2[C@H](NC(=O)[C@H](N)c3ccccc3)C(=O)N2[C@H]1C(=O)O [AMPICILLIN]	6.25		
